In PubChem BioAssay (NCI):
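Five compound concentrations were applied to cells in 96-well plates for 48 hours; endpoints were derived by simple linear interpolation of the resulting dose-response curve. GI50 marks 50% less growth. TGI is the concentration that stops growth completely.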

Assays:
Assay in all cases: NCI-60 cell line screen, 48 h
TK-10 renal = system: TK-10 renal
CAKI-1 renal = system: CAKI-1 renal
RPMI-8226 leukemia = system: RPMI-8226 leukemia
KM12 colon = system: KM12 colon
ACHN renal = system: ACHN renal
NCI-H460 lung = system: NCI-H460 lung
EKVX NSCLC = system: EKVX NSCLC
CCRF-CEM leukemia = system: CCRF-CEM leukemia
NCI/ADR-RES ovarian = system: NCI/ADR-RES ovarian
A498 renal = system: A498 renal

Row | SMILES | TGI (TK-10 renal) | TGI (CAKI-1 renal) | TGI (RPMI-8226 leukemia) | TGI (KM12 colon) | TGI (ACHN renal) | TGI (NCI-H460 lung) | TGI (EKVX NSCLC) | GI50 (TK-10 renal) | GI50 (CAKI-1 renal) | GI50 (RPMI-8226 leukemia) | GI50 (CCRF-CEM leukemia) | TGI (CCRF-CEM leukemia) | GI50 (NCI/ADR-RES ovarian) | TGI (NCI/ADR-RES ovarian) | GI50 (KM12 colon) | GI50 (ACHN renal) | GI50 (NCI-H460 lung) | GI50 (EKVX NSCLC) | TGI (A498 renal)
1 | c1ccc(COCC2OC3c4ccccc4COC3C2OCc2ccccc2)cc1 (stereo not drawn) | > 100 µM | > 100 µM | > 100 µM | > 100 µM | > 100 µM | > 100 µM | > 100 µM |  |  |  |  |  |  |  |  |  |  |  | 
2 | COc1ccc(-c2ccc(/C=N/n3c(C)nn(CN4CCN(C)CC4)c3=S)o2)c([N+](=O)[O-])c1 | 74.7 µM | > 100 µM | 64.6 µM | 42.9 µM | > 100 µM | > 100 µM | > 100 µM | 24.3 µM | 24.4 µM | 20.6 µM | 22 µM | 61.4 µM | 21.6 µM | 50.5 µM | 17.7 µM | 69.4 µM | 29.3 µM | > 100 µM | 
3 | COC(=O)C(Cc1nc2ccc(Cl)cc2[nH]c1=O)/C(=N/NC(N)=O)C(=O)Nc1ccc(Cl)cc1 (stereo not drawn) | > 100 µM | > 100 µM | > 100 µM | > 100 µM | > 100 µM | > 100 µM | > 100 µM |  |  |  |  | > 100 µM |  |  |  |  |  |  | > 100 µM
4 | COc1cc(-c2cc(=O)c3cc(C)c(C)c(C(=O)O)c3o2)cc(OC)c1OC | > 100 µM |  | > 100 µM | > 100 µM | > 100 µM | > 100 µM | > 100 µM |  |  |  |  | > 100 µM |  |  |  |  |  |  | > 100 µM
5 | Cn1c2cc(O)cc(O)c2c(=O)c2c([N+](=O)[O-])cccc21 | > 100 µM | > 100 µM | > 100 µM | > 100 µM | > 100 µM | > 100 µM | > 100 µM |  |  |  |  | > 100 µM |  |  |  |  |  |  | > 100 µM
6 | CC/C(C)=C1\OC(=O)C(C)C(O)C(Cc2cccnc2)NC(=O)C(NC(=O)c2ncccc2O)C(C)OC1=O (stereo not drawn) | > 100 µM | > 100 µM | > 100 µM | > 100 µM | > 100 µM | > 100 µM | > 100 µM |  |  |  |  |  |  |  |  |  |  |  | > 100 µM
7 | O=C(NO)C(=O)Nc1ccc(Cl)cc1[N+](=O)[O-] | > 100 µM | > 100 µM | > 100 µM | > 100 µM | > 100 µM | > 100 µM | > 100 µM |  |  |  |  | > 100 µM |  |  |  |  |  |  | > 100 µM
8 | COC12CC(=O)C(C(C)=O)=C(O)C1(C)c1c(OC(C)=O)c(C)c(O)c(C(C)=O)c1O2 (stereo not drawn) | 69.7 µM | 54.1 µM | > 100 µM | > 100 µM | 99.2 µM | > 100 µM | 93.6 µM |  |  |  |  | 66.8 µM |  |  |  |  |  |  | 78.1 µM
9 | COC(OC)[C@@H](C)[C@H](O)[C@](C)(O)C1OC(C)(C)OC(C(C)C=C(C)C)C1C (stereo partly drawn) | > 100 µM | > 100 µM | > 100 µM | > 100 µM | > 100 µM | > 100 µM | > 100 µM |  |  |  |  | > 100 µM |  |  |  |  |  |  | > 100 µM
10 | CC(=O)OC1CC2C(C)(C)C(=O)C=CC2(C)C2CCC3(C)C(c4ccoc4)OC(=O)C4OC43C12C (stereo not drawn) | > 100 µM | 31.1 µM | 8.02 µM | 19.4 µM | > 100 µM | 16.1 µM | > 100 µM |  |  |  |  |  |  | > 100 µM |  |  |  |  | > 100 µM
11 | CSc1ccc(/C=C/c2ccnc3ccccc23)cc1 | 26.8 µM |  |  | > 100 µM | 29.5 µM | 27.3 µM | 22.3 µM |  |  |  |  | 78.3 µM |  | 29.5 µM |  |  |  |  | 29.2 µM
